Data on one molecule can be found in patent US20050090496A1, “Sulphonyl compounds with 5-ht6 receptor affinity” (priority 2002, published 2005).

Structures can show the parent of a compound that is named as a salt. Where only a bound is given, the exact number is not on record here.

The target of this test is T1, human cloned 5-HT6 receptors (Homo sapiens, UniProt P50406).
T1 construct: expressed in transfected cells
Description: affinity for the 5-HT6 receptor (procedures of WO98/27081). The class given is binding. The text has this: Compounds can be tested following the procedures outlined in WO98/27081.

Usually Ki stands for a measure of affinity in units of concentration, obtained from inhibition or displacement. High values mean weaker binding, low ones tighter binding.

T1 sequence (P50406 whole entry): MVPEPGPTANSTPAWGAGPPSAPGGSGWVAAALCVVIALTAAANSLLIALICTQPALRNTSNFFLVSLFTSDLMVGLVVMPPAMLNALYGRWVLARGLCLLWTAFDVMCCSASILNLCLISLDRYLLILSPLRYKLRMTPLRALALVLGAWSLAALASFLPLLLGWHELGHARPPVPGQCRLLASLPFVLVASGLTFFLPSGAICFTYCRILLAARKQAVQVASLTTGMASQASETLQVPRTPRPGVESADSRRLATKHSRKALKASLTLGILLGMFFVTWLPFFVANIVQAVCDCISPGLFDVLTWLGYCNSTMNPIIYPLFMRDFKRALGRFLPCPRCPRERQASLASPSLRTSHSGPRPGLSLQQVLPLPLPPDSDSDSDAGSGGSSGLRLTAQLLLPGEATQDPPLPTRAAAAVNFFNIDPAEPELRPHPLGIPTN

Consider `O=S(=O)(c1cccc(Cl)c1)n1ccc2c(N3CCNCC3)ccnc21` [Example E1, 4[1-(3-Chlorobenzenesulfonyl)-1-pyrrolo[2,3-b]pyridin-4-yl]-piperazine hydrochloride], for which the Ki was under 10 nM.
